Assay results taken from patent US11923581B2, “Aqueous redox flow battery electrolytes with high chemical and electrochemical stability, high water solubility, low membrane permeability” (President and Fellows of Harvard College, priority 2016, dated 2024).

Experiments:
physchem = conditions: 25 °C, thermodynamic from solid
[1] = Cyclic voltammetry, reduction potential; type: physicochemical
Solubility in water = conditions: 25° C.
[2] = cited from earlier work

SMILES: C[N+](C)(C)CCC[n+]1ccc(-c2cc[n+](CCC[N+](C)(C)C)cc2)cc1 [Compound 1, (3-trimethylammonio)propyl viologen tetrachloride]
- solubility (physchem; pH 7, water): 2000 mM
- solubility (physchem; water): 2000 mM
- reduction potential vs. Ag/AgCl reference electrode ([1]; pH 7): −0.55 V
- reduction potential vs. RHE ([1]; pH 7): +0.07 V

SMILES: C[N+](C)(C)CCC[c-]1cccc1.C[N+](C)(C)CCC[c-]1cccc1.[Cl-].[Cl-].[Fe+2] [Compound 2, bis((3-trimethylammonio)propyl)ferrocene dichloride]
- reduction potential vs. Ag/AgCl reference electrode ([1]; pH 7): +0.21 V
- reduction potential vs. RHE ([1]; pH 7): +0.83 V

SMILES: C[N+](C)(C)C[c-]1cccc1.F[B-](F)(F)F.[Fe+2].c1cc[cH-]c1 [Compound 3]
- water solubility (Solubility in water): ~400 mM
- reduction potential vs. RHE ([1]; pH 7, converted from the measured potential): +1.05 V
- reduction potential vs. Ag/AgCl reference electrode ([1]; pH 7, cyclic voltammetry): +0.43 V

SMILES: C[N+](C)(C)CCCNC(=O)[c-]1cccc1.[Cl-].[Fe+2].c1cc[cH-]c1 [Compound 7, N-((3-trimethylammonio)propyl) ferrocenecarboxamide chloride]
- reduction potential higher than that of 2 ([1]; pH 7): ~240 mV
- reduction potential vs SHE ([1]; pH 7): +0.63 V
- reduction potential vs. RHE ([1]; pH 7): +1.04 V

SMILES: C[n+]1ccc(-c2cc[n+](C)cc2)cc1 [MV dichloride, methyl viologen]
- solubility in water at pH 7 [2]: 3.0 M
